# Read-outs that look alike come from different tables or passages of the source.
# Experiments:
# [1] = target: T1, hMATE1 (Homo sapiens, UniProt Q96FL8); experiment: Inhibition of RI-labeled TEA uptake in HEK293 cells expressing hMATE1; conditions: for TEA uptake activity percent taking the level with addition of no compound as 100% (% ± S.D.): 50 μM RI-labeled TEA, pH 8.0, HEK293 cells expressing hMATE1; for Inhibition of TEA uptake activity (in words, summary of Table 1): MATE1 expressing HEK293 cells, 50 μM TEA, pH 8.0; for Effect on TEA uptake activity (in words): valinomycin 5 μM with 65 mM potassium chloride, nigericin 5 μM with potassium chloride, SF6847 10 μM
# T1 sequence (Q96FL8 1-570): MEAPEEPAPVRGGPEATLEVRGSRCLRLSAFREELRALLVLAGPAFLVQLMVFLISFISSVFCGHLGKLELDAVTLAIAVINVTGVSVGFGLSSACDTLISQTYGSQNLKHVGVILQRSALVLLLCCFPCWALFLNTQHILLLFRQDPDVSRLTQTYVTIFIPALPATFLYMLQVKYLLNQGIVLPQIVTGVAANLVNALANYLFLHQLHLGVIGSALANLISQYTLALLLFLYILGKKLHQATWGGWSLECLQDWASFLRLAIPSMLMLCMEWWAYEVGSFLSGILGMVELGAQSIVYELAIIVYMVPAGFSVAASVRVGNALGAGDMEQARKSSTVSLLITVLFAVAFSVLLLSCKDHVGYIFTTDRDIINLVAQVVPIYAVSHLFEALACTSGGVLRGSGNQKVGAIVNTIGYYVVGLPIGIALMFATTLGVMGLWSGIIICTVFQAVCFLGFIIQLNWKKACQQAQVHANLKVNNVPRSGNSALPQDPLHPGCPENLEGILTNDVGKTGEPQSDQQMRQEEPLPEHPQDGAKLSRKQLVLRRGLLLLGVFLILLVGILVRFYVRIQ
# [2] = target: T2, mMATE1 (Mus musculus, UniProt Q8K0H1); experiment: Inhibition of RI-labeled TEA uptake in HEK293 cells expressing mMATE1; type: cell-based;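 note: transfected HEK293 cells held 5 min at 37 °C before tracer addition, uptake read as radioactivity retained on a 0.45-µm membrane filter, mean ± SD of three to nine experiments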
# T2 construct: expressed in transfected cells; host or cells: HEK293
# T2 sequence (Q8K0H1 with tags, fused parts or gaps): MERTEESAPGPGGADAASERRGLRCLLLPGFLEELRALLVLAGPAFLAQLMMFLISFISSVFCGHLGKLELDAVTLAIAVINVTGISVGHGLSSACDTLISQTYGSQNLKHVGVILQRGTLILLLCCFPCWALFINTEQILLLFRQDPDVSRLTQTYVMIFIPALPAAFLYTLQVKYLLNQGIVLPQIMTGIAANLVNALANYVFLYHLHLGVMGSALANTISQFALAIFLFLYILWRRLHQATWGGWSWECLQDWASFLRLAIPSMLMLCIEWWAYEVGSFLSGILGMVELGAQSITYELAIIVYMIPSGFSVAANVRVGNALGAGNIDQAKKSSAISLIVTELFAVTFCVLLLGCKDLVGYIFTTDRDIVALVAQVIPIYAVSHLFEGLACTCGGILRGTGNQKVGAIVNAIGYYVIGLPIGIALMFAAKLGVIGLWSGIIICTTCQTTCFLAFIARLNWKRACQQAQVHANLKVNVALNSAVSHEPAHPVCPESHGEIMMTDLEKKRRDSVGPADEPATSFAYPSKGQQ
# [3] = HEK293 cells expressing human MATE1, FIG. 9(e)
compound,measurement,setting,value
NCCc1c[nH]c2ccc(O)cc12 [Serotonin],TEA uptake activity percent taking the level with addition of no compound as 100% (% ± S.D.),[1]; compound 0.1 mM,67.5 ± 8.0%
C[C@@H]1O[C@@H](O[C@H]2C[C@@H](O)[C@]3(CO)[C@H]4[C@H](O)C[C@]5(C)[C@@H](C6=CC(=O)OC6)CC[C@]5(O)[C@@H]4CC[C@]3(O)C2)[C@H](O)[C@H](O)[C@H]1O [Ouabain],TEA uptake activity percent taking the level with addition of no compound as 100% (% ± S.D.),[1]; compound 0.01 mM,115.9 ± 6.6%
C[C@]12CCC(=O)C=C1CC[C@@H]1[C@@H]2CC[C@]2(C)C(=O)CC[C@@H]12 [Androstenedione],remaining activity at 100 µM,"[2]; HEK293, pH 8, read-out: TEA uptake activity percent taking the level with addition of no compound as 100% (% ± S.D.)",8.6 ± 1.7%
same,TEA uptake activity percent taking the level with addition of no compound as 100% (% ± S.D.),[1]; compound 0.1 mM,36.6 ± 0.9%
Catechin,TEA uptake activity percent taking the level with addition of no compound as 100% (% ± S.D.),[1]; compound 0.1 mM,104.0 ± 4.4%
CCCN(CCC)S(=O)(=O)c1ccc(C(=O)O)cc1 [Probenecid],remaining activity at 1000 µM,"[2]; compound 1 mM, 50 μM RI-labeled TEA, pH 8.0, HEK293 cells expressing mMATE1, read-out: TEA uptake activity percent taking the level with addition of no compound as 100% (% ± S.D.)",93.7 ± 11.9%
same,TEA uptake activity percent taking the level with addition of no compound as 100% (% ± S.D.),[1]; compound 1 mM,108.5 ± 7.9%
C[N+](C)(C)CCO [Choline],remaining activity at 5000 µM,"[2]; compound 5 mM, 50 μM RI-labeled TEA, pH 8.0, HEK293 cells expressing mMATE1, read-out: TEA uptake activity percent taking the level with addition of no compound as 100% (% ± S.D.)",62 ± 8.8%
same,TEA uptake activity percent taking the level with addition of no compound as 100% (% ± S.D.),[1]; compound 5 mM,62.7 ± 4.1%
O=C(CCCN1CC=C(n2c(=O)[nH]c3ccccc32)CC1)c1ccc(F)cc1 [Droperidol],TEA uptake activity percent taking the level with addition of no compound as 100% (% ± S.D.),[1]; compound 0.001 mM,74.1 ± 14.7%
para-aminobutyric acid,"Inhibition of TEA uptake activity (in words, summary of Table 1)",[1],not inhibited
COC(=O)[C@H]1[C@H]2C[C@@H]3c4[nH]c5cc(OC)ccc5c4CCN3C[C@H]2C[C@@H](OC(=O)c2cc(OC)c(OC)c(OC)c2)[C@@H]1OC [Reserpine],TEA uptake activity percent taking the level with addition of no compound as 100% (% ± S.D.),[1]; compound 0.001 mM,86.3 ± 3.5%
same,TEA uptake activity percent taking the level with addition of no compound as 100% (% ± S.D.),[1]; compound 0.01 mM,22.8 ± 0.9%
O=c1c(O)c(-c2ccc(O)c(O)c2)oc2cc(O)cc(O)c12 [Quercetin],remaining activity at 100 µM,"[2]; compound 0.1 mM, 50 μM RI-labeled TEA, pH 8.0, HEK293 cells expressing mMATE1, read-out: TEA uptake activity percent taking the level with addition of no compound as 100% (% ± S.D.)",47.1 ± 0.1%
same,"Inhibition of TEA uptake activity (in words, summary of Table 1)",[1],inhibited
same,TEA uptake activity percent taking the level with addition of no compound as 100% (% ± S.D.),[1]; compound 0.1 mM,28.2 ± 3.1%
N[C@@H](Cc1cc(I)c(Oc2cc(I)c(O)c(I)c2)c(I)c1)C(=O)O [Thyroxine],TEA uptake activity percent taking the level with addition of no compound as 100% (% ± S.D.),[1]; compound 0.1 mM,113.0 ± 4.5%
CC/C(=C(/CC)c1ccc(O)cc1)c1ccc(O)cc1 [Diethylstilbestrol],TEA uptake activity percent taking the level with addition of no compound as 100% (% ± S.D.),[1]; compound 0.1 mM,94.9 ± 7.8%
CC[C@@H]1C(=O)OC[C@@H]1Cc1cncn1C [Pilocarpine],TEA uptake activity percent taking the level with addition of no compound as 100% (% ± S.D.),[1]; compound 0.1 mM,96.1 ± 0.4%
CO[C@@H]1C[C@@H](C[C@H]2CC[C@H](C)[C@H]([C@@H](C)C(=O)O)O2)O[C@]2(O[C@](C)([C@H]3CC[C@@](C)([C@@H]4O[C@@H]([C@H]5O[C@@](O)(CO)[C@H](C)C[C@@H]5C)C[C@@H]4C)O3)C[C@H]2C)[C@@H]1C [nigericin],Effect on TEA uptake activity (in words),[1]; [3],greatly decreased
CC(C)(c1ccc(O)cc1)c1ccc(O)cc1 [Bisphenol A],TEA uptake activity percent taking the level with addition of no compound as 100% (% ± S.D.),[1]; compound 0.01 mM,113.9 ± 2.1%
CC(C)[C@@H]1NC(=O)[C@H](C)OC(=O)[C@@H](C(C)C)NC(=O)[C@@H](C(C)C)OC(=O)[C@H](C(C)C)NC(=O)[C@H](C)OC(=O)[C@@H](C(C)C)NC(=O)[C@@H](C(C)C)OC(=O)[C@H](C(C)C)NC(=O)[C@H](C)OC(=O)[C@@H](C(C)C)NC(=O)[C@@H](C(C)C)OC1=O [valinomycin],Effect on TEA uptake activity (in words),[1]; [3],not affected
C[C@@H]1O[C@@H](OC[C@H]2O[C@@H](Oc3c(-c4ccc(O)c(O)c4)oc4cc(O)cc(O)c4c3=O)[C@H](O)[C@@H](O)[C@@H]2O)[C@H](O)[C@H](O)[C@H]1O [Rutin],TEA uptake activity percent taking the level with addition of no compound as 100% (% ± S.D.),[1]; compound 0.1 mM,71.8 ± 3.6%
N.N.[Cl][Pt][Cl] [Cisplatin],TEA uptake activity percent taking the level with addition of no compound as 100% (% ± S.D.),[1]; compound 1 mM,35.6 ± 6.0%
CN1[C@@H]2CC[C@H]1C[C@@H](OC(=O)C(CO)c1ccccc1)C2 (stereo partly shown) [Atropine],TEA uptake activity percent taking the level with addition of no compound as 100% (% ± S.D.),[1]; compound 0.1 mM,74.6 ± 5.5%
C=C[C@H]1C[N@@]2CC[C@H]1C[C@H]2[C@H](O)c1ccnc2ccc(OC)cc12 [Quinine],TEA uptake activity percent taking the level with addition of no compound as 100% (% ± S.D.),[1]; compound 0.01 mM,30.4 ± 2.8%
CCN(CC)CCCC(C)Nc1c2ccc(Cl)cc2nc2ccc(OC)cc12 (stereo not shown) [Quinacrine],TEA uptake activity percent taking the level with addition of no compound as 100% (% ± S.D.),[1]; compound 0.01 mM,41.6 ± 8.2%
C[C@]12CC[C@@H](O)C[C@@H]1CC[C@@H]1[C@@H]2CC[C@]2(C)C(=O)CC[C@@H]12 [androsterone],"Inhibition of TEA uptake activity (in words, summary of Table 1)",[1],inhibited
CC(C)NCC(O)COc1cccc2ccccc12 (stereo not shown) [Propranolol],TEA uptake activity percent taking the level with addition of no compound as 100% (% ± S.D.),[1]; compound 0.1 mM,30.1 ± 3.9%
Cl.N [ammonium chloride],TEA uptake activity inhibited by,"[1]; HEK293 cells expressing human MATE1, FIG. 9(e), concentration not given",60%
CN(C)CCCN1c2ccccc2Sc2ccc(Cl)cc21 [Chlorpromazine],TEA uptake activity percent taking the level with addition of no compound as 100% (% ± S.D.),[1]; compound 0.1 mM,12.2 ± 3.6%
C[C@H]1O[C@@H](O[C@H]2[C@@H](O)C[C@H](O[C@H]3[C@@H](O)C[C@H](O[C@H]4CC[C@@]5(C)[C@H](CC[C@@H]6[C@@H]5C[C@@H](O)[C@]5(C)[C@@H](C7=CC(=O)OC7)CC[C@]65O)C4)O[C@@H]3C)O[C@@H]2C)C[C@H](O)[C@@H]1O [Digoxin],TEA uptake activity percent taking the level with addition of no compound as 100% (% ± S.D.),[1]; compound 0.001 mM,102.5 ± 7.3%
NCCCCNCCCN [Spermidine],TEA uptake activity percent taking the level with addition of no compound as 100% (% ± S.D.),[1]; compound 0.05 mM,97.0 ± 11.4%
COc1ccc2cc3[n+](cc2c1OC)CCc1cc2c(cc1-3)OCO2 [Berberin],TEA uptake activity percent taking the level with addition of no compound as 100% (% ± S.D.),[1]; compound 0.001 mM,69.2 ± 2.1%
same,TEA uptake activity percent taking the level with addition of no compound as 100% (% ± S.D.),[1]; compound 0.01 mM,20.4 ± 2.4%
same,TEA uptake activity percent taking the level with addition of no compound as 100% (% ± S.D.),[1]; compound 0.1 mM,4.2 ± 0.9%
NC12CC3CC(CC(C3)C1)C2 [Amantadine],TEA uptake activity percent taking the level with addition of no compound as 100% (% ± S.D.),[1]; compound 0.1 mM,75.5 ± 9.8%
CCc1nc(N)nc(N)c1-c1ccc(Cl)cc1 [Pyrimethamine],TEA uptake activity percent taking the level with addition of no compound as 100% (% ± S.D.),[1]; compound 0.00001 mM,45.2 ± 3.5%
same,TEA uptake activity percent taking the level with addition of no compound as 100% (% ± S.D.),[1]; compound 0.0001 mM,19.8 ± 1.6%
Cc1ncc(C[n+]2csc(CCO)c2C)c(N)n1 [Thiamine],TEA uptake activity percent taking the level with addition of no compound as 100% (% ± S.D.),[1]; compound 0.1 mM,55.7 ± 7.0%
same,TEA uptake activity percent taking the level with addition of no compound as 100% (% ± S.D.),[1]; compound 1 mM,31.1 ± 3.9%
CN(C)C(=N)N=C(N)N [Metformin],TEA uptake activity percent taking the level with addition of no compound as 100% (% ± S.D.),[1]; compound 0.1 mM,120.5 ± 9.4%
Tocopherol,TEA uptake activity percent taking the level with addition of no compound as 100% (% ± S.D.),[1]; compound 0.1 mM,78.8 ± 9.6%
CC(C)(C)c1cc(C=C(C#N)C#N)cc(C(C)(C)C)c1O [SF6847],Effect on TEA uptake activity (in words),[1]; [3],greatly decreased
C[n+]1ccc(-c2cc[n+](C)cc2)cc1 [Paraquat],TEA uptake activity percent taking the level with addition of no compound as 100% (% ± S.D.),[1]; compound 1 mM,57.2 ± 6.8%
COc1ccc(Cc2nccc3cc(OC)c(OC)cc23)cc1OC [Papaverine],TEA uptake activity percent taking the level with addition of no compound as 100% (% ± S.D.),[1]; compound 0.01 mM,26.8 ± 2.7%

# — patent US8278032B2, “Transporter protein in mammal and utilization of the same” (priority 2005, dated 2012)
